Test: molar heat capacity at constant volume; xn = mol fraction of the nth substance listed
Settings: Fluid (supercritical or subcritical phases), Isochoric Heat Capacity Apparatus

CCCCCCCCCC [decane] + O=C=O
Settings	molar heat capacity at constant volume [J/K/mol]
485.62 K, Mass density=375 kg/m3, x1 = 0.178	481.74
486.19 K, Mass density=374.7 kg/m3, x1 = 0.095	337.46
486.48 K, Mass density=201.8 kg/m3, x1 = 0.095	412.09
486.76 K, Mass density=375 kg/m3, x1 = 0.178	484.88
486.96 K, Mass density=131.5 kg/m3, x1 = 0.095	529.99
486.96 K, Mass density=201.8 kg/m3, x1 = 0.095	409.43
487.15 K, Mass density=155 kg/m3, x1 = 0.095	472.85
487.15 K, Mass density=201.8 kg/m3, x1 = 0.095	398.22
487.34 K, Mass density=155 kg/m3, x1 = 0.095	461.86
487.53 K, Mass density=155 kg/m3, x1 = 0.095	453.38
487.72 K, Mass density=155 kg/m3, x1 = 0.095	442.23
487.96 K, Mass density=155 kg/m3, x1 = 0.095	446.71
488.19 K, Mass density=155 kg/m3, x1 = 0.095	447.14
488.49 K, Mass density=176.7 kg/m3, x1 = 0.095	436.9
488.58 K, Mass density=176.7 kg/m3, x1 = 0.095	427.94
488.68 K, Mass density=176.7 kg/m3, x1 = 0.095	434.18
488.82 K, Mass density=339.4 kg/m3, x1 = 0.178	500.32
488.87 K, Mass density=176.7 kg/m3, x1 = 0.095	431.72
489.06 K, Mass density=176.7 kg/m3, x1 = 0.095	425.91
489.44 K, Mass density=339.4 kg/m3, x1 = 0.178	498.78
490.01 K, Mass density=408.8 kg/m3, x1 = 0.178	466.06
490.58 K, Mass density=398.3 kg/m3, x1 = 0.095	337.25
491.54 K, Mass density=281.4 kg/m3, x1 = 0.095	350.21
493.44 K, Mass density=339.4 kg/m3, x1 = 0.178	492.82
493.44 K, Mass density=375 kg/m3, x1 = 0.178	478.92
493.63 K, Mass density=320.2 kg/m3, x1 = 0.095	344.98
494.29 K, Mass density=339.4 kg/m3, x1 = 0.178	493.86
494.39 K, Mass density=375 kg/m3, x1 = 0.178	481.74
494.76 K, Mass density=87 kg/m3, x1 = 0.095	750.57
494.95 K, Mass density=374.7 kg/m3, x1 = 0.095	342.85
495.33 K, Mass density=176.7 kg/m3, x1 = 0.095	423.94
495.52 K, Mass density=241 kg/m3, x1 = 0.095	368.51
495.52 K, Mass density=408.8 kg/m3, x1 = 0.178	468.89
496.56 K, Mass density=131.5 kg/m3, x1 = 0.095	548.39
497.42 K, Mass density=310.8 kg/m3, x1 = 0.178	516
497.51 K, Mass density=310.8 kg/m3, x1 = 0.178	512.93
497.6 K, Mass density=310.8 kg/m3, x1 = 0.178	514.22
499.87 K, Mass density=110.8 kg/m3, x1 = 0.095	615.07
499.87 K, Mass density=155 kg/m3, x1 = 0.095	463.68
500.06 K, Mass density=375 kg/m3, x1 = 0.178	479.47
500.9 K, Mass density=310.8 kg/m3, x1 = 0.178	505.18
500.9 K, Mass density=398.3 kg/m3, x1 = 0.095	339.7
501.75 K, Mass density=310.8 kg/m3, x1 = 0.178	507.27
502.88 K, Mass density=408.8 kg/m3, x1 = 0.178	473.26
503.07 K, Mass density=339.4 kg/m3, x1 = 0.178	489.49
503.82 K, Mass density=339.4 kg/m3, x1 = 0.178	492.32
504.88 K, Mass density=284.3 kg/m3, x1 = 0.178	533.78
505.5 K, Mass density=201.8 kg/m3, x1 = 0.095	397.32
505.96 K, Mass density=284.3 kg/m3, x1 = 0.178	524.24
506.25 K, Mass density=374.7 kg/m3, x1 = 0.095	343.97
506.32 K, Mass density=284.3 kg/m3, x1 = 0.178	521.66
507.56 K, Mass density=320.2 kg/m3, x1 = 0.095	346.42
508.72 K, Mass density=284.3 kg/m3, x1 = 0.178	513.42
509.65 K, Mass density=284.3 kg/m3, x1 = 0.178	513.42
512.22 K, Mass density=339.4 kg/m3, x1 = 0.178	488.69
512.4 K, Mass density=241 kg/m3, x1 = 0.095	370.11
512.96 K, Mass density=339.4 kg/m3, x1 = 0.178	489.49
513.52 K, Mass density=155 kg/m3, x1 = 0.095	469.92
513.7 K, Mass density=176.7 kg/m3, x1 = 0.095	436.2
514.1 K, Mass density=110.8 kg/m3, x1 = 0.095	628.94
515.19 K, Mass density=281.4 kg/m3, x1 = 0.095	353.36
515.37 K, Mass density=398.3 kg/m3, x1 = 0.095	347.33
515.86 K, Mass density=131.5 kg/m3, x1 = 0.095	553.72
516.11 K, Mass density=87 kg/m3, x1 = 0.095	740.97
516.76 K, Mass density=83.3 kg/m3, x1 = 0.178	975.91
517.48 K, Mass density=83.3 kg/m3, x1 = 0.178	984.15
517.59 K, Mass density=374.7 kg/m3, x1 = 0.095	348.19
517.68 K, Mass density=310.8 kg/m3, x1 = 0.178	496.69
518.51 K, Mass density=310.8 kg/m3, x1 = 0.178	499.76
519.25 K, Mass density=155 kg/m3, x1 = 0.095	471.73
520.73 K, Mass density=117.8 kg/m3, x1 = 0.178	788.7
521.28 K, Mass density=110.8 kg/m3, x1 = 0.095	622.54
522.57 K, Mass density=320.2 kg/m3, x1 = 0.095	352.88
523.12 K, Mass density=281.4 kg/m3, x1 = 0.095	355.33
523.67 K, Mass density=164.2 kg/m3, x1 = 0.178	675.66
524.03 K, Mass density=164.2 kg/m3, x1 = 0.178	667.67
524.03 K, Mass density=201.8 kg/m3, x1 = 0.095	397.1
524.22 K, Mass density=320.2 kg/m3, x1 = 0.095	351.33
524.4 K, Mass density=164.2 kg/m3, x1 = 0.178	659.98
524.77 K, Mass density=83.3 kg/m3, x1 = 0.178	982.86
526.6 K, Mass density=117.8 kg/m3, x1 = 0.178	779.17
528.43 K, Mass density=117.8 kg/m3, x1 = 0.178	775.54
529.61 K, Mass density=164.2 kg/m3, x1 = 0.178	637.53
529.71 K, Mass density=117.8 kg/m3, x1 = 0.178	768.84
530.07 K, Mass density=164.2 kg/m3, x1 = 0.178	636.24
530.25 K, Mass density=241 kg/m3, x1 = 0.095	375.44
530.62 K, Mass density=164.2 kg/m3, x1 = 0.178	631.87
530.67 K, Mass density=339.4 kg/m3, x1 = 0.178	492.82
531.4 K, Mass density=339.4 kg/m3, x1 = 0.178	493.86
532.44 K, Mass density=374.7 kg/m3, x1 = 0.095	354.69
532.99 K, Mass density=87 kg/m3, x1 = 0.095	727.63
533.17 K, Mass density=117.8 kg/m3, x1 = 0.178	758.57
533.71 K, Mass density=155 kg/m3, x1 = 0.095	467.68
534.08 K, Mass density=117.8 kg/m3, x1 = 0.178	754.94
535.31 K, Mass density=131.5 kg/m3, x1 = 0.095	565.99
535.39 K, Mass density=83.3 kg/m3, x1 = 0.178	958.14
535.89 K, Mass density=164.2 kg/m3, x1 = 0.178	631.13
536.16 K, Mass density=83.3 kg/m3, x1 = 0.178	972.28
536.98 K, Mass density=83.3 kg/m3, x1 = 0.178	973.82
536.98 K, Mass density=110.8 kg/m3, x1 = 0.095	693.49
537.7 K, Mass density=320.2 kg/m3, x1 = 0.095	358.27
538.25 K, Mass density=281.4 kg/m3, x1 = 0.095	361.63
543.48 K, Mass density=201.8 kg/m3, x1 = 0.095	402.01
543.48 K, Mass density=310.8 kg/m3, x1 = 0.178	509.05
543.84 K, Mass density=176.7 kg/m3, x1 = 0.095	450.93
544.11 K, Mass density=310.8 kg/m3, x1 = 0.178	514.46
544.38 K, Mass density=284.3 kg/m3, x1 = 0.178	517.29
546.37 K, Mass density=117.8 kg/m3, x1 = 0.178	758.81
546.63 K, Mass density=83.3 kg/m3, x1 = 0.178	971.79
547.62 K, Mass density=83.3 kg/m3, x1 = 0.178	992.89
550.12 K, Mass density=87 kg/m3, x1 = 0.095	712.69
550.12 K, Mass density=320.2 kg/m3, x1 = 0.095	360.72
550.48 K, Mass density=281.4 kg/m3, x1 = 0.095	369.42
550.84 K, Mass density=155 kg/m3, x1 = 0.095	462.13
554.06 K, Mass density=164.2 kg/m3, x1 = 0.178	623.38
556.37 K, Mass density=131.5 kg/m3, x1 = 0.095	553.72
556.91 K, Mass density=83.3 kg/m3, x1 = 0.178	997.75
559.75 K, Mass density=241 kg/m3, x1 = 0.095	388.83
560.29 K, Mass density=281.4 kg/m3, x1 = 0.095	373.42
561.17 K, Mass density=176.7 kg/m3, x1 = 0.095	448.69
561.35 K, Mass density=320.2 kg/m3, x1 = 0.095	369.84
568.43 K, Mass density=241 kg/m3, x1 = 0.095	393.53

Reference: the NIST ThermoML archive (doi:10.1007/s10765-006-0056-z)
